Measurements as given in ChEMBL document CHEMBL5465560, “Selectivity Literature for EUbOPEN Chemogenomic Library” (2024).
Blank lines part the entries; values can stand above or below the compound they belong to.

Key:
[1] = molecular target: CDK2/Cyclin A2 (Homo sapiens, UniProt P24941); assay: (§1) Selectivity interaction (Enzymatic assay (Reaction Biology)) EUB0001632a CDK2; assay type: protein-complex assay
[2] = molecular target: Cyclin-dependent kinase 2/cyclin E (Homo sapiens, UniProt P24941); assay: as §1; assay type: protein-complex assay
[3] = molecular target: Hepatocyte growth factor receptor (Homo sapiens, UniProt P08581); conditions: at 1 µM
Chain of Hepatocyte growth factor receptor (P08581 whole entry): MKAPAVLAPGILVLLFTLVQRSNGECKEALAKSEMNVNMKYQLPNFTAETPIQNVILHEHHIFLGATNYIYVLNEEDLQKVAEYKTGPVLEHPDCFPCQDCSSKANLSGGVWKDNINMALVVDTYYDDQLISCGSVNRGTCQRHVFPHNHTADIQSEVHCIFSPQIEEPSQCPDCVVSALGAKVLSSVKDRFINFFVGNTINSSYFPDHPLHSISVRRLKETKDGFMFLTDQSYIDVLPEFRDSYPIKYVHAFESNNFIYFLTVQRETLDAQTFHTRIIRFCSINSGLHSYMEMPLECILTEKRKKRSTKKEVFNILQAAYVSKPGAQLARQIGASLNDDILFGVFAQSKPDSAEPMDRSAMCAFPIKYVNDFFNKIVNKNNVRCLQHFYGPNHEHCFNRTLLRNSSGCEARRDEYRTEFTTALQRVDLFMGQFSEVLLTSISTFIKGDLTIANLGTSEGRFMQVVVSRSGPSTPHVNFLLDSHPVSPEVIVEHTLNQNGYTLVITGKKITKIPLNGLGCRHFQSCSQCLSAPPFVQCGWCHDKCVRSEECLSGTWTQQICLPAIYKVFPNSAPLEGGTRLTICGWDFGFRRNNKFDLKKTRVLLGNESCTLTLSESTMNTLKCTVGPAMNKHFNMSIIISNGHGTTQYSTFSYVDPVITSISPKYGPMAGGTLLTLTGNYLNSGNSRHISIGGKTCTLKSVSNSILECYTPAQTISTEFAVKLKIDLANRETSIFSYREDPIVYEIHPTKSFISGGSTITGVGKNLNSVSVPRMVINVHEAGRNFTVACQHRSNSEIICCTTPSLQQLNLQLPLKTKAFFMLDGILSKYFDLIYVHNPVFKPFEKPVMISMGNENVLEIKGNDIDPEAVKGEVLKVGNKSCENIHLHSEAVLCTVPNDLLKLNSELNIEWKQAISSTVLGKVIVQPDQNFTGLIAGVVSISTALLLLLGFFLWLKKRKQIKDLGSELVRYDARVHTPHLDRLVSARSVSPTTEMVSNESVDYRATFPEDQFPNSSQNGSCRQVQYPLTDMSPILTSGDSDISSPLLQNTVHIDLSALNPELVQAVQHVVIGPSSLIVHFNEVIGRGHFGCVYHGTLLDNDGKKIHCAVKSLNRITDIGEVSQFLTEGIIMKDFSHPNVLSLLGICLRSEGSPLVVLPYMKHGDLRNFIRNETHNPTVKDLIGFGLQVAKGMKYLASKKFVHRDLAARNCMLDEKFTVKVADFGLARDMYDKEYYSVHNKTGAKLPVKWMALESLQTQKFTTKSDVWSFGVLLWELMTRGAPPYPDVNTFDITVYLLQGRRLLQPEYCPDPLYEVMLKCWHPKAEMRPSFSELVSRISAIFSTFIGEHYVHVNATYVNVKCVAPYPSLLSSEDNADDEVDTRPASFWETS

[4] = molecular target: Death-associated protein kinase 3 (Homo sapiens) (UniProt O43293); conditions: at 10 µM
Chain of Death-associated protein kinase 3 (Homo sapiens) (O43293 whole entry, looked up): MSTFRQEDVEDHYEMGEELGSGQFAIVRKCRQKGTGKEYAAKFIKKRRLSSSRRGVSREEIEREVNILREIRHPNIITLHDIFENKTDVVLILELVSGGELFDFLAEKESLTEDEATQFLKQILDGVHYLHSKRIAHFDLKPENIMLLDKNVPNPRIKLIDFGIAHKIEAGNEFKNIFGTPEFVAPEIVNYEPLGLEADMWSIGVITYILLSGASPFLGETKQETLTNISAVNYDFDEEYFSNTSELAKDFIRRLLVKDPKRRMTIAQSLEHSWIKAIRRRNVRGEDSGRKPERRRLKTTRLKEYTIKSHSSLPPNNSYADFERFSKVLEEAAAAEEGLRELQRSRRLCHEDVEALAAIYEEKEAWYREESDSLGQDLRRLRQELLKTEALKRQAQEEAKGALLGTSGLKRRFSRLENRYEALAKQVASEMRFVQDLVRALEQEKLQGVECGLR

[5] = molecular target: Macrophage colony-stimulating factor 1 receptor (Homo sapiens) (UniProt P07333); assay: Selectivity interaction (Kinase panel (Invitrogen)) EUB0000639a CSF1R; conditions: at 200 nM
Chain of Macrophage colony-stimulating factor 1 receptor (Homo sapiens) (P07333 whole entry): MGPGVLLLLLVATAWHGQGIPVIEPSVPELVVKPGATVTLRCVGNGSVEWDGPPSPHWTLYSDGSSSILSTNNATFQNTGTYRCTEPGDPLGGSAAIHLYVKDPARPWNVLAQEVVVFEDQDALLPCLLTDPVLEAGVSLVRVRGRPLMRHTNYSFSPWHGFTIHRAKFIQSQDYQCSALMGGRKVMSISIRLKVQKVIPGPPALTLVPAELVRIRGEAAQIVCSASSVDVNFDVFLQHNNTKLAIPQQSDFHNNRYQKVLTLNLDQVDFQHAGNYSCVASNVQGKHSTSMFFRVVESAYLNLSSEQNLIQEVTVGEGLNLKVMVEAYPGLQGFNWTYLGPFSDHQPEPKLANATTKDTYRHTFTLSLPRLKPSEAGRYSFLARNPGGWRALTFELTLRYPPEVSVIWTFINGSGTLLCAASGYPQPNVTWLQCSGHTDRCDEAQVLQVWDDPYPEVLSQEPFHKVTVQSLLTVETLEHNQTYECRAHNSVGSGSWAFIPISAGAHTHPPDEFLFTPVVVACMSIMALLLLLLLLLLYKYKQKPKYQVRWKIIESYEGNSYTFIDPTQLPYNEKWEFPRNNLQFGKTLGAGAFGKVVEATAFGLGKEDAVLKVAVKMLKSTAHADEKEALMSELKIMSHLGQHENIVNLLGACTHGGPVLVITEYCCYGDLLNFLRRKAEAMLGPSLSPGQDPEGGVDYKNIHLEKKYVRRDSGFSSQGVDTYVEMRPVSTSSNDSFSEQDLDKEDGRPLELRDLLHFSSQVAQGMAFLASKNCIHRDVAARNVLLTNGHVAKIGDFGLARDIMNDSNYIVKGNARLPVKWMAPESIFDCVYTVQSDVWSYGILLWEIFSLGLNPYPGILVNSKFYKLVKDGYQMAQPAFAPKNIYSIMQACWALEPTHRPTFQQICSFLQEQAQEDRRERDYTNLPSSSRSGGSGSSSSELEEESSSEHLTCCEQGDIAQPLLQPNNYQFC

[6] = molecular target: T1, N-lysine methyltransferase KMT5A (Homo sapiens) (UniProt Q9NQR1); assay: Selectivity interaction (Methyltransferase screen (radiometric assays, panel of 8 PRMTs, 21 protein lysine methyltransferases, 3 DNA methyltransferases, and one RNA methyltransferase)) EUB0000271b SETD8
T1 sequence (whole entry): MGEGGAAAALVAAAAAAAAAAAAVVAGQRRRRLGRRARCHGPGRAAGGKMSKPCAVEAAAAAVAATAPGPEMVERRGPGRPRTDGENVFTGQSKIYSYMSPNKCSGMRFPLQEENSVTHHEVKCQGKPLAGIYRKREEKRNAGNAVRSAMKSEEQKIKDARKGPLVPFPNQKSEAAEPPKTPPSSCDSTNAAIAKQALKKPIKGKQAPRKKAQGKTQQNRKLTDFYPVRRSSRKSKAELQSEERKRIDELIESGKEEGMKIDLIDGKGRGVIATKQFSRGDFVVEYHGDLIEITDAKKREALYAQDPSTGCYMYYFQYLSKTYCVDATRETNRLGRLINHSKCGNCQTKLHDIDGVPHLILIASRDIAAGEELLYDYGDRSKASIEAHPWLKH

[7] = molecular target: Eukaryotic translation initiation factor 2-alpha kinase 1 (Homo sapiens) (UniProt Q9BQI3); assay: Selectivity interaction (Ambit KINOMEscan and KiNATiv profiling in Jurkat cells) EUB0000090b EIF2AK1; assay type: cell-based; conditions: at 1 µM
[8] = molecular target: Fibroblast growth factor receptor 4 (Homo sapiens, UniProt P22455); assay: Selectivity interaction (KinomeScan (DiscoverX)) EUB0001079a FGFR4; conditions: at 1 µM
[9] = molecular target: T2, Serine/threonine-protein kinase D2 (Homo sapiens) (UniProt Q9BZL6); assay: Selectivity interaction (Kinase panel (KiNativ target engagement assay in Jurkat cells)) EUB0001635a PRKD2; assay type: cell-based; conditions: at 1 µM
T2 sequence (whole entry): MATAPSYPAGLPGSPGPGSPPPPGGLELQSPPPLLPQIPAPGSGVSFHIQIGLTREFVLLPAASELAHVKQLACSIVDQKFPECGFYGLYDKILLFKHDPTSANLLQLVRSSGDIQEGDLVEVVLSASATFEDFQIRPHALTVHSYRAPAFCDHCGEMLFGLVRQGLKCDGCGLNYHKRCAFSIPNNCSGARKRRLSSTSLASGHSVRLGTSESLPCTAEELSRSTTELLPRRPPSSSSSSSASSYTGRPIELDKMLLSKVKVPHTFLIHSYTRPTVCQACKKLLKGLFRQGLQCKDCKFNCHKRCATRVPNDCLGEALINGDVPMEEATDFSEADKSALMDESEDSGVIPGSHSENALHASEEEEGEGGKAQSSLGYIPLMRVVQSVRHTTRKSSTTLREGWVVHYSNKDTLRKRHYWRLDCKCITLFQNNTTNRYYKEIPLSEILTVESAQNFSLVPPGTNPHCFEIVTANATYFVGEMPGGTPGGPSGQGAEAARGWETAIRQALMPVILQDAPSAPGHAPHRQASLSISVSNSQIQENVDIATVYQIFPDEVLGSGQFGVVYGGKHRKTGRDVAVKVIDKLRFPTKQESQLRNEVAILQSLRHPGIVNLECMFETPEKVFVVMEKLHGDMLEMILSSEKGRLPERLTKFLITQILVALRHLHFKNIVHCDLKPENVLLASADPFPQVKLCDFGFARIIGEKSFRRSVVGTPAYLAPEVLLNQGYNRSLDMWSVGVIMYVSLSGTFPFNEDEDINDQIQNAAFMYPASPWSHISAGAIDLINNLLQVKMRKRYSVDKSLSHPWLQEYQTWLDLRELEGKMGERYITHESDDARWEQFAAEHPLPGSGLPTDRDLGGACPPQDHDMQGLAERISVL

[10] = molecular target: Serine/threonine-protein kinase 35 (Homo sapiens) (UniProt Q8TDR2); assay: Selectivity interaction (KinomeScan (DiscoverX)) EUB0000229b STK35; conditions: at 10 µM
Chain of Serine/threonine-protein kinase 35 (Homo sapiens) (Q8TDR2 whole entry): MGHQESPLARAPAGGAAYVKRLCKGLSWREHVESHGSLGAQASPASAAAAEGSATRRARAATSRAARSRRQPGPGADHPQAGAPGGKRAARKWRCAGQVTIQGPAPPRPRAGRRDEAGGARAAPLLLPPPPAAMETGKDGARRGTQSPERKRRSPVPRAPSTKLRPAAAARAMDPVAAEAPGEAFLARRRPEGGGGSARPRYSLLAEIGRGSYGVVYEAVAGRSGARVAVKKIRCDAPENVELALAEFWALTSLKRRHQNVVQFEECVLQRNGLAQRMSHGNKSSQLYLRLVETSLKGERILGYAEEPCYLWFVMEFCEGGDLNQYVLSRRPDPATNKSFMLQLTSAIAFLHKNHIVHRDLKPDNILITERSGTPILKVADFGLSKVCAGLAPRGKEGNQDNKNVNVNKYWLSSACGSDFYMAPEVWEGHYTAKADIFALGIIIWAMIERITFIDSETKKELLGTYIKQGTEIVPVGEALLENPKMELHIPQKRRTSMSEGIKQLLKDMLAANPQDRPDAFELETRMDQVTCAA

[11] = molecular target: T3, Non-receptor tyrosine-protein kinase TNK1 (Homo sapiens) (UniProt Q13470); conditions: at 10 µM
T3 sequence (whole entry): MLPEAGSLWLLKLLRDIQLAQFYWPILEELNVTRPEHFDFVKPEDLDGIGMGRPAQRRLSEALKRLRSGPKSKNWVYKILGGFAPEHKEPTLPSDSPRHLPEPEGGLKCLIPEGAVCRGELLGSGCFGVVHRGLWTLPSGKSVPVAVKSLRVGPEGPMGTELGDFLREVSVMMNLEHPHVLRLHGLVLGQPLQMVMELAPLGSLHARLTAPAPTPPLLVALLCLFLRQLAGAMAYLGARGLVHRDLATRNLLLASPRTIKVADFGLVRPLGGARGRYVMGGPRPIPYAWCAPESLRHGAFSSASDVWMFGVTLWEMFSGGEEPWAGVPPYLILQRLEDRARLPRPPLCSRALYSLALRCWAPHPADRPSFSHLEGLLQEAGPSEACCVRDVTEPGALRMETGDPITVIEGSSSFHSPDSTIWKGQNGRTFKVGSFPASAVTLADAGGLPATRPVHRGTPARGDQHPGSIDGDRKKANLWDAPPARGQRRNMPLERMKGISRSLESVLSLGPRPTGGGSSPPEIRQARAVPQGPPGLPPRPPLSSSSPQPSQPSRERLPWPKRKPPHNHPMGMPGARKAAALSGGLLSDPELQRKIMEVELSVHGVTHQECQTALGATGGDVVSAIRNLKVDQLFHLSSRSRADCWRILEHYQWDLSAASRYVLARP

[12] = tested on: Tyrosine-protein kinase ABL1 (Homo sapiens), P00519 [E255K]; conditions: at 10 µM
[13] = Selectivity interaction (KinomeScan (DiscoverX)) EUB0001619a CDK2H; conditions: at 1 µM
[14] = molecular target: Proto-oncogene tyrosine-protein kinase receptor Ret (Homo sapiens, UniProt P07949); assay: (§2) Selectivity interaction (KinomeScan (DiscoverX)) EUB0001619a RET; conditions: at 1 µM
Chain of Proto-oncogene tyrosine-protein kinase receptor Ret (P07949 whole entry): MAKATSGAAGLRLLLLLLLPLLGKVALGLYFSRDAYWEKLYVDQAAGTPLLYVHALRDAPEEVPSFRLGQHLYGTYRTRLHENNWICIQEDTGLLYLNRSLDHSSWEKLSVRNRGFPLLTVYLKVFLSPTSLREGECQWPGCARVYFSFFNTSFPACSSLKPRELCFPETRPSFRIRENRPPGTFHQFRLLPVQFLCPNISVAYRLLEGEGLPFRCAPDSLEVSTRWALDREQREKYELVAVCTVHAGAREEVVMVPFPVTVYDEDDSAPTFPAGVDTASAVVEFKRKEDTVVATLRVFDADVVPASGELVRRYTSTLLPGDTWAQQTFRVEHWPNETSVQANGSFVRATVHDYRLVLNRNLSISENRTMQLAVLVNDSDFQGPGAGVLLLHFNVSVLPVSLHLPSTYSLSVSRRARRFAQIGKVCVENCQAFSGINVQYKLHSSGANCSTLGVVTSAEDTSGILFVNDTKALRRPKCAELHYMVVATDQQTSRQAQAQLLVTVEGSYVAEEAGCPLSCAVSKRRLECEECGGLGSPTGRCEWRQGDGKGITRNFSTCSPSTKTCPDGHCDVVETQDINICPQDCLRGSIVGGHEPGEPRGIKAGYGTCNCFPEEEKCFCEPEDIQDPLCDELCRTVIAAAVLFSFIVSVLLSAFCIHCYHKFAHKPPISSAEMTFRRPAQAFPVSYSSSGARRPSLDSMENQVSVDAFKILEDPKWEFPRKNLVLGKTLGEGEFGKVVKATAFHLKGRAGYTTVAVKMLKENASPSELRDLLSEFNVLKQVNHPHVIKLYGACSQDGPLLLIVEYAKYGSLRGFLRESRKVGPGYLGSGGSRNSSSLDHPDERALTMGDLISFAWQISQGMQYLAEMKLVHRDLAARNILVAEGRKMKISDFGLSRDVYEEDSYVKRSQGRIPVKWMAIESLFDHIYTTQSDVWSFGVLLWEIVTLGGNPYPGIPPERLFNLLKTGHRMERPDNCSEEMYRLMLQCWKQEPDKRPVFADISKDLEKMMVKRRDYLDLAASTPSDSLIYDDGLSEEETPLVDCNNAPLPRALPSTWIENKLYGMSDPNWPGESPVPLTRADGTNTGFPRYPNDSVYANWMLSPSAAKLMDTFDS

[15] = tested on: Proto-oncogene tyrosine-protein kinase receptor Ret (Homo sapiens), P07949 [V804L]; assay: as §2; conditions: at 1 µM
Chain of Proto-oncogene tyrosine-protein kinase receptor Ret (Homo sapiens), P07949 [V804L] (P07949 whole entry V804L): as the sequence (P07949 whole entry) above, with V804L counted along it

[16] = tested on: Proto-oncogene tyrosine-protein kinase receptor Ret (Homo sapiens), P07949 [M918T]; assay: as §2; conditions: at 1 µM
Chain of Proto-oncogene tyrosine-protein kinase receptor Ret (Homo sapiens), P07949 [M918T] (P07949 whole entry M918T): as the sequence (P07949 whole entry) above, with M918T counted along it

[17] = tested on: Proto-oncogene tyrosine-protein kinase receptor Ret (Homo sapiens), P07949 [V804M]; assay: as §2; conditions: at 1 µM
Chain of Proto-oncogene tyrosine-protein kinase receptor Ret (Homo sapiens), P07949 [V804M] (P07949 whole entry V804M): as the sequence (P07949 whole entry) above, with V804M counted along it

IC50 [1]: > 10 µM
IC50 [2]: > 10 µM
SMILES: Cn1cc(-n2cnc3c(NCc4nc5cc(Cl)c(Cl)cc5[nH]4)nc(N4CCOCC4)nc32)cn1

% of inhibition [3]: 41%
SMILES: Cc1ccc(-c2ccc3c(ccc4sc5c(c43)NC[C@@H](C)NC5=O)n2)cn1

SMILES: CCN(CC)CCCCNc1ncc2cc(-c3cc(OC)cc(OC)c3)c(NC(=O)NC(C)(C)C)nc2n1
% of control [4]: 100%

% of inhibition [5]: 5.5%
SMILES: CC[C@@H]1[C@H](F)C(=O)N[C@@H]1COc1nccc2cc(C(N)=O)c(OC)cc12 [ZIMLOVISERTIB]

SMILES: Cc1cc(C)cc([C@@H]2c3cc(C)ccc3NC(=O)CN2C(=O)c2ccc(Br)s2)c1
% of activity ([6]; at 1 µM): 101%
% of activity ([6]; at 10 µM): 92%

SMILES: CN(C)C/C=C/C(=O)Nc1ccc(C(=O)N2CCCC(Nc3ncc(Cl)c(-c4c[nH]c5ccccc45)n3)C2)cc1 (stereo not drawn)
% of control [7]: 84%

SMILES: Nc1cnc(N2CCc3cc(S(=O)(=O)Nc4c(F)cc(Cl)cc4F)cc(N4CCCC4=O)c32)nc1 [TP-020n]
% of control [8]: 100%

SMILES: C=CC(=O)Nc1ccc(C(=O)Nc2[nH]nc3c2CN(C(=O)N[C@H](CN(C)C)c2ccccc2)C3(C)C)cc1
% of engagement [9]: -4.9%

SMILES: COc1cc(N(C)c2ccnc3ccc(C(F)(F)F)cc23)cc(OC)c1OC
% binding [10]: 90%

SMILES: Cc1cc([C@@H](C)Nc2ccccc2C(=O)O)c2nc(N3CCOCC3)cc(=O)n2c1 [AZD-6482]
% of control [11]: 100%
% of control [12]: 94%

SMILES: N#Cc1cccc(-c2c[nH]c3ncnc(N4CCOCC4)c23)c1
% of control [13]: 100%
% of control [14]: 78%
% of control [15]: 95%
% of control [16]: 70%
% of control [17]: 58%
